{"source": "ChEMBL document CHEMBL4725292", "about": "(J Med Chem, 2020)", "key": {"[1]": {"target": "T1, Transcription intermediary factor 1-alpha (Homo sapiens, UniProt O15164)", "T1 sequence (O15164 whole entry)": "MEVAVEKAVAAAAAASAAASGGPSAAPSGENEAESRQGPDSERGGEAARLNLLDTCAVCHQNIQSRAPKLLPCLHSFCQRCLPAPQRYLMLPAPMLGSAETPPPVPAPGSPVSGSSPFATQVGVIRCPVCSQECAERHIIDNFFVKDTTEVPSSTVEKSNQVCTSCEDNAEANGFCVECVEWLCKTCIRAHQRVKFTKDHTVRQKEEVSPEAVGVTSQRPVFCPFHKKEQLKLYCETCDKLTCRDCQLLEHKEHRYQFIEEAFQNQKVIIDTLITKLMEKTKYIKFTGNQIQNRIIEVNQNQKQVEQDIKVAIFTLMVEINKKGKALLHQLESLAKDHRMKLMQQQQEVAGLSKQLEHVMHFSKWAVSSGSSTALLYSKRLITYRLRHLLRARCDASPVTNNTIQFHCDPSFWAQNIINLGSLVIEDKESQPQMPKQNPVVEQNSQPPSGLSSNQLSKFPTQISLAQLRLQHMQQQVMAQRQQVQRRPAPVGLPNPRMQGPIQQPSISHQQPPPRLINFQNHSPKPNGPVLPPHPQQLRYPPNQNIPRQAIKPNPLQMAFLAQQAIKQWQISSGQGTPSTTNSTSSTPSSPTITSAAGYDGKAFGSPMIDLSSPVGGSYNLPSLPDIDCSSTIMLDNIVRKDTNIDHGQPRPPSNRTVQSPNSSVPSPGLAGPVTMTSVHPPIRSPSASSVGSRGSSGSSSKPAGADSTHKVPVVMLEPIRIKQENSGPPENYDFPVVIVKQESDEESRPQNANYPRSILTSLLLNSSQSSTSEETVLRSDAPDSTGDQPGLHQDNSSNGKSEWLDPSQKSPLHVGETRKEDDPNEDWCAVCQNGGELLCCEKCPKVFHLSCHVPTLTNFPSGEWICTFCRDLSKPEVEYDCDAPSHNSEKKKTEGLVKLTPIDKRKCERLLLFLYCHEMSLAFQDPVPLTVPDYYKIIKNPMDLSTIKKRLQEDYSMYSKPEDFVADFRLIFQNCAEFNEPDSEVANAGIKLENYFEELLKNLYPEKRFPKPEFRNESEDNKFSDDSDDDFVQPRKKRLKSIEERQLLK", "experiment": "Binding affinity to human partial length TRIM24 (P790 to P977 residues) expressed in bacterial expression system by BROMOscan assay"}, "B cell": {"test_system": "B cell", "experiment": "Downregulation of IL-6 secretion in human B cells cocultured with human PBMC at 0.37 to 10 uM preincubated for 1 hr followed by anti-IgM and TCR stimulation and measured after 84 hrs by ELISA", "format": "functional, cell-based", "conditions": "dose microM 0.37-10, time 1.0 hrs"}, "[2]": {"target": "Transcription initiation factor TFIID subunit 1 (Homo sapiens, UniProt P21675)", "sequence (P21675 whole entry, the tested form may be a part)": "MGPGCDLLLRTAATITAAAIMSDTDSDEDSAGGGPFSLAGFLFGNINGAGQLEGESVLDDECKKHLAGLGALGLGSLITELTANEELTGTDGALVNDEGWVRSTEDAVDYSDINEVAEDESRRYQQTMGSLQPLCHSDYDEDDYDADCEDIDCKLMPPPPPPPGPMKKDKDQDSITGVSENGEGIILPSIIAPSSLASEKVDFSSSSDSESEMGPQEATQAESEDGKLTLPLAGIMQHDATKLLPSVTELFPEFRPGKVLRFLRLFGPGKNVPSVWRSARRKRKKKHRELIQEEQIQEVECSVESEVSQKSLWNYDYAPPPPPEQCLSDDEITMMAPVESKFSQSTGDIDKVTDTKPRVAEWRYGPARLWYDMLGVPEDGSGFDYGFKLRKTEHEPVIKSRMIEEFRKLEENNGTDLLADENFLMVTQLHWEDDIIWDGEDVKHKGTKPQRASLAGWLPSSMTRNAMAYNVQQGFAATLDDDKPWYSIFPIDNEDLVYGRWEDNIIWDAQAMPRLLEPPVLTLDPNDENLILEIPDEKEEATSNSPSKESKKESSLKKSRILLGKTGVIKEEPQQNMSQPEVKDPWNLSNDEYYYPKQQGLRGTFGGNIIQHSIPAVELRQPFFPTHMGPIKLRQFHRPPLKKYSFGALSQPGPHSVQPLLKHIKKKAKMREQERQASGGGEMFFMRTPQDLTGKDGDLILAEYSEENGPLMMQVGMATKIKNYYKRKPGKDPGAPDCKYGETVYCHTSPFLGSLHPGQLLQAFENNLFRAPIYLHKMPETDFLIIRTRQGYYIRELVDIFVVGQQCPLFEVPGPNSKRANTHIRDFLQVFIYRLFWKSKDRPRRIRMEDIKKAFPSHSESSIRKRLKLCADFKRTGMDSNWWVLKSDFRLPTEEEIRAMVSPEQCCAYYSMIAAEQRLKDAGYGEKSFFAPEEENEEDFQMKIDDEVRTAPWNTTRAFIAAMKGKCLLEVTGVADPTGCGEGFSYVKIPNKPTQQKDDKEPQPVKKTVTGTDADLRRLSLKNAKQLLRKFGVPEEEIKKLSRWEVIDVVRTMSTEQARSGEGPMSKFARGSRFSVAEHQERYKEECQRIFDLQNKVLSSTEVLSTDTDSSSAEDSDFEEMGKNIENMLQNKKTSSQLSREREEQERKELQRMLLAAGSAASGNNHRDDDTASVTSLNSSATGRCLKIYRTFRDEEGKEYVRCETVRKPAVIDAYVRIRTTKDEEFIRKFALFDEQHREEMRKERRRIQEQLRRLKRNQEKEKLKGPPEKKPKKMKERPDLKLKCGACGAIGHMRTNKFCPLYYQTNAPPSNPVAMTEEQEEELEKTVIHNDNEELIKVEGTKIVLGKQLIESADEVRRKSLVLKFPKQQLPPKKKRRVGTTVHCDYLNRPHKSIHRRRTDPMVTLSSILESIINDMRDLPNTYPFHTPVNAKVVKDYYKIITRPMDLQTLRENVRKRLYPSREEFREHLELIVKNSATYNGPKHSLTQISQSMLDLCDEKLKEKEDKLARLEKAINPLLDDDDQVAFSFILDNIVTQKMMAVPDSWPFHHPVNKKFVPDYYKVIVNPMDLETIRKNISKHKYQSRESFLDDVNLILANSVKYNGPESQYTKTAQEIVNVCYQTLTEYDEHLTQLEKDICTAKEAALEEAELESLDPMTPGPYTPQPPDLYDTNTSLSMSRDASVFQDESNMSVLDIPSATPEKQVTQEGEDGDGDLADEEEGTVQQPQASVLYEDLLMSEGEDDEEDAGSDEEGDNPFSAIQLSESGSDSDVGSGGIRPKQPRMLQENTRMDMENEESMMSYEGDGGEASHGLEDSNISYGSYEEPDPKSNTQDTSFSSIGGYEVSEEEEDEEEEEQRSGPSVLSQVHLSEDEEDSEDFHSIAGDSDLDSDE", "experiment": "Binding affinity to human partial length TAF1 bromodomain 2 (D1521 to D1656 residues) expressed in bacterial expression system by BROMOscan assay"}}, "note": "Activity calls are given as the source filed them. The rule behind the calls is not given here.", "data": [{"smiles": "Cc1cc2c(-c3ccco3)cnc(N[C@@H]3CCN(C)C[C@H]3C(=O)NC3CCCCC3)c2[nH]c1=O", "note": "[GSK789]", "values": [{"measurement": "Kd", "setting": "[1]", "value": 20, "unit": "µM"}, {"measurement": "Activity", "setting": "B cell", "value": "Active"}, {"measurement": "Kd", "setting": "[2]", "value": 0.0501, "unit": "µM"}]}]}
